Experimental data reported in article PMC3458792 (Neuron, 2012).
Residue numbers refer to the chain shown, from its start.

Tests used:
Assay type in all cases: cell-based
[1] = target: GLR-1, STG-1, SOL-1 and SOL-2 (Caenorhabditis elegans, UniProt P34299); test: patch clamp of C. elegans muscle cells; details: -60 mV
GLR-1, STG-2 and SOL-1 [2] = target: T1, GLR-1, STG-2 and SOL-1 (Caenorhabditis elegans, UniProt P34299, Q552Y); test: two-electrode voltage clamp, Xenopus oocytes, agonist-gated current; details: 1 mM glutamate
T1 sequence (P34299 26-962 Q552Y): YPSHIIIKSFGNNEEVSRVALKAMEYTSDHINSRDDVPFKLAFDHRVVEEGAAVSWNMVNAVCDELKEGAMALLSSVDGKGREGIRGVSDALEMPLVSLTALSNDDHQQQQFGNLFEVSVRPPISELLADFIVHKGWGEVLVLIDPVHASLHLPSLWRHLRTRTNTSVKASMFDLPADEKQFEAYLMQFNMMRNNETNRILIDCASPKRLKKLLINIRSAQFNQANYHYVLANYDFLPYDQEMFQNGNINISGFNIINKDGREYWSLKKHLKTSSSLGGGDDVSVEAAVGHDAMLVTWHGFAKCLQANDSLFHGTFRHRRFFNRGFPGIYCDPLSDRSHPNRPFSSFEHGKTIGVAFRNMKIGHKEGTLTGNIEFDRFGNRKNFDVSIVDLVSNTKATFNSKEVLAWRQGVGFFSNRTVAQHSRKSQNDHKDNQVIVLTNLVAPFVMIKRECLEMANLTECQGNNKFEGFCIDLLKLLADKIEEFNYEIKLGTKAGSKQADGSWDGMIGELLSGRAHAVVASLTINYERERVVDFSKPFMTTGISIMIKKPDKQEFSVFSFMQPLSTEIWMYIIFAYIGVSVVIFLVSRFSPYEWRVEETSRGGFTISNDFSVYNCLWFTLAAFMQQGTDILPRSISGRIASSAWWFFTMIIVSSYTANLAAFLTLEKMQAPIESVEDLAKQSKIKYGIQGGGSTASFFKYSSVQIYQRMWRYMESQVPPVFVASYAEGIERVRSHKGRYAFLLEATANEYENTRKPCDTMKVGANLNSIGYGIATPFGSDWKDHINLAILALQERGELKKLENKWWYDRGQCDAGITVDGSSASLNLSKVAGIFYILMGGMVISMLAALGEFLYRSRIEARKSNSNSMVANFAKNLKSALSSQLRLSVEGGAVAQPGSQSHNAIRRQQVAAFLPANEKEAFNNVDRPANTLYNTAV
T1 sequence (G5EBI8 1-357 partner): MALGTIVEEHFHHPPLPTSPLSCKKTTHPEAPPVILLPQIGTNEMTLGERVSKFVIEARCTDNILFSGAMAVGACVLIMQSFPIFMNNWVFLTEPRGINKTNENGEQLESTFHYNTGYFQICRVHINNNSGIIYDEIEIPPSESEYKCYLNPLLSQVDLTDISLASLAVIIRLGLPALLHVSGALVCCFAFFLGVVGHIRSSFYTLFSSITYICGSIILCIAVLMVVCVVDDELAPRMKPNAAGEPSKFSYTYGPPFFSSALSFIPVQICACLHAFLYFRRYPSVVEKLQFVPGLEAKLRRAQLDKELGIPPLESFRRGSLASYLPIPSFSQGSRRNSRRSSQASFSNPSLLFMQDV
T1 sequence (Q93212 24-594 partner): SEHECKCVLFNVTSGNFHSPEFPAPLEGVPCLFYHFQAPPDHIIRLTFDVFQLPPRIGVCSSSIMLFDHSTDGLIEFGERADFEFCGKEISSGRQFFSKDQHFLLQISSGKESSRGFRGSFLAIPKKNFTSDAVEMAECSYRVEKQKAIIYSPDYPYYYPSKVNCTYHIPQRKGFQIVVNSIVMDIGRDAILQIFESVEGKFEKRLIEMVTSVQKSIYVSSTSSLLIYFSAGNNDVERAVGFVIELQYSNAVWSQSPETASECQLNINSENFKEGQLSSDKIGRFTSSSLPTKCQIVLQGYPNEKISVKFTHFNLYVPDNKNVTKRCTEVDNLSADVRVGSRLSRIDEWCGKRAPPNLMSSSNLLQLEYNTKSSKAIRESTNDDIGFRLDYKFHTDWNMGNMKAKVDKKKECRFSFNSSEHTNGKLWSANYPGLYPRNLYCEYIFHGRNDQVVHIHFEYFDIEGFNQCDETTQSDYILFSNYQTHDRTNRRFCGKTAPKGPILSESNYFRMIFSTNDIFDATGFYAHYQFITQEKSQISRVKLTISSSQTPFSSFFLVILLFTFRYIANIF

GLR-1, STG-2 and SOL-1 [3] = target: T2, GLR-1, STG-2 and SOL-1 (Caenorhabditis elegans, UniProt P34299); test: as above
T2 sequence (P34299 26-962): T1 sequence (P34299 26-962 Q552Y) with Y527Q
T2 sequence (G5EBI8 1-357 partner): T1 sequence (G5EBI8 1-357 partner)
T2 sequence (Q93212 24-594 partner): T1 sequence (Q93212 24-594 partner)

[4] = target: GLR-1, STG-2, SOL-1 and SOL-2 (Caenorhabditis elegans, UniProt P34299); test: as above
Chain of GLR-1, STG-2, SOL-1 and SOL-2 (Caenorhabditis elegans, UniProt P34299) (P34299 26-962, one chain of several): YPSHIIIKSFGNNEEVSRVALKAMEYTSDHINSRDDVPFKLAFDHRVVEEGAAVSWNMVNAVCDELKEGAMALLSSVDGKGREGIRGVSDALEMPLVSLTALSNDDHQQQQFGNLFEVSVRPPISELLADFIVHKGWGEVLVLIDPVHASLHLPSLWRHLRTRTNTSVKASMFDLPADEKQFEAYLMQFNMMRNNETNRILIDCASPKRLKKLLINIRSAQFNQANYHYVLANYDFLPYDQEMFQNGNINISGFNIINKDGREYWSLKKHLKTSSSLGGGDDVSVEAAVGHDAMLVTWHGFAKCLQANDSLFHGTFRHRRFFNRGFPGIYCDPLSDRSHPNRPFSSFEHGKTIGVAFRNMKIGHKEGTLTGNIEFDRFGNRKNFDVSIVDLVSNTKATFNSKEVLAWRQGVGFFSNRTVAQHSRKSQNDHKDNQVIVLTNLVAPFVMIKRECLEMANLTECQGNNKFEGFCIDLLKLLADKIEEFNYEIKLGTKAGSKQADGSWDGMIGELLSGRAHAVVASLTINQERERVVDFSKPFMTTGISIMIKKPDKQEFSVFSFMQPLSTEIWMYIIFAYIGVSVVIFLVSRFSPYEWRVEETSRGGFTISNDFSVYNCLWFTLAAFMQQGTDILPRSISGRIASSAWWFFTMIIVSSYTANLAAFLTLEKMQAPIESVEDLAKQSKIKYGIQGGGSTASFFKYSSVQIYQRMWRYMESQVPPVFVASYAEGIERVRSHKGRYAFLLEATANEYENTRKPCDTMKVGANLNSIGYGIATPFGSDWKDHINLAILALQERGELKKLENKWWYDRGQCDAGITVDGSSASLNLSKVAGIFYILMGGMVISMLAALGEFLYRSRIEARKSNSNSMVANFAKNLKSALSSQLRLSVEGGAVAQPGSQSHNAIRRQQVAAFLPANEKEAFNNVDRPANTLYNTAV
Chain of GLR-1, STG-2, SOL-1 and SOL-2 (Caenorhabditis elegans, UniProt P34299) (Q9XUU2 19-436 partner, one chain of several): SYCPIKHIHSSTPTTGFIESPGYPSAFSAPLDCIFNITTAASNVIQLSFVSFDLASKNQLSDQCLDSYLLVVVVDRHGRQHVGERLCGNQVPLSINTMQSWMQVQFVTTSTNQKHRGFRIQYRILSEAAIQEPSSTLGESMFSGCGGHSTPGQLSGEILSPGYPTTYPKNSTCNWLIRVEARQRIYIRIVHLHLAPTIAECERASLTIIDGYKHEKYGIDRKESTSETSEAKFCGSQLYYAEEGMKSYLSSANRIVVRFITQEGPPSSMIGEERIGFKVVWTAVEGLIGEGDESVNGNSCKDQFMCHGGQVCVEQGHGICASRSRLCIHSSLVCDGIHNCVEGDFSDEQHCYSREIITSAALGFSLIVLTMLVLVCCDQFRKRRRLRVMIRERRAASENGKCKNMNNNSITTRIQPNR

[5] = target: GLR-1, STG-2, SOL-1 and SOL-2 (Caenorhabditis elegans, UniProt P34299, Q552Y); test: as above; details: 1 mM glutamate
Chain of GLR-1, STG-2, SOL-1 and SOL-2 (Caenorhabditis elegans, UniProt P34299, Q552Y) (Q9XUU2 19-436 partner, one chain of several): as above

GLR-1, STG-1 and SOL-1 = target: T3, GLR-1, STG-1 and SOL-1 (Caenorhabditis elegans, UniProt P34299); test: patch clamp of C. elegans muscle cells; details: 100 μM kainate; -60 mV; partial agonist
T3 sequence (P34299 26-962): T1 sequence (P34299 26-962 Q552Y) with Y527Q
T3 sequence (Q15KL0 1-366 partner): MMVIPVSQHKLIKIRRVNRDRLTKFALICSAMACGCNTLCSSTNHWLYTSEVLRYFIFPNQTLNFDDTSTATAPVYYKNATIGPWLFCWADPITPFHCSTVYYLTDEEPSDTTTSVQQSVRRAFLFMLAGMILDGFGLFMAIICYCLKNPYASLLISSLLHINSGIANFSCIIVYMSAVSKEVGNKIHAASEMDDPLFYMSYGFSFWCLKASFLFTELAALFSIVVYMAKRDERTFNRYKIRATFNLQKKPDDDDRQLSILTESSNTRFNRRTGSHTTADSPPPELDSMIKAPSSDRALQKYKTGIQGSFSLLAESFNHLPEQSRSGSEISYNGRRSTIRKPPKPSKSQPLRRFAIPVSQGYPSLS
T3 sequence (Q93212 24-594 partner): T1 sequence (Q93212 24-594 partner)

[6] = 100 μM kainate, partial agonist

Chain of GLR-1, STG-1, SOL-1 and SOL-2 (P34299 26-962, one chain of several): as the sequence (P34299 26-962, one chain of several) above
Chain of GLR-1, STG-1, SOL-1 and SOL-2 (Q9XUU2 19-436 partner, one chain of several): as the sequence (Q9XUU2 19-436 partner, one chain of several) above

N[C@@H](CCC(=O)O)C(=O)O [Glu, glutamate] was tested, and the “patch clamp of C. elegans muscle cells” value ([1]; 3 mM glutamate, agonist) was “glutamate-gated currents of approximately the same magnitude and kinetics in transgenic muscles”, the “two-electrode voltage clamp, Xenopus oocytes, agonist-gated current” value (shortened to “two-electrode voltage clamp”) (GLR-1, STG-2 and SOL-1 [2]) was “glutamate-gated current recorded from Xenopus oocytes that expressed GLR-1(Q552Y), STG-2, and SOL-1 did not desensitize” and the “two-electrode voltage clamp” value (GLR-1, STG-2 and SOL-1 [3]; 1 mM glutamate, agonist) was “We recorded both glutamate- and kainate-gated currents from oocytes”. The “two-electrode voltage clamp” value ([4]; 1 mM glutamate, agonist) was “We recorded both glutamate- and kainate-gated currents from oocytes” and the “two-electrode voltage clamp” value [5] was “there was considerable desensitization when SOL-2 was co-expressed”.
With C=C(C)[C@H]1CN[C@H](C(=O)O)[C@H]1CC(=O)O [KA, kainate] the “patch clamp of C. elegans muscle cells” value [1, 6] was “the presence of SOL-2 markedly reduced the magnitude of the kainate-gated current”, the “two-electrode voltage clamp” value (GLR-1, STG-2 and SOL-1 [3]; [6]) was “We recorded both glutamate- and kainate-gated currents from oocytes” and the “two-electrode voltage clamp” value [4, 6] was “The kainate-gated current appeared faster and smaller with co-expression of SOL-2”. The “patch clamp of C. elegans muscle cells” value (GLR-1, STG-1 and SOL-1) was “the presence of SOL-2 markedly reduced the magnitude of the kainate-gated current”.
